In brackets after ≈: the same amount, converted by molar mass. Where two headings read alike, the source gives them in different places.
Legend:
Entero. cloacae HH 31254 = assay: MIC in vitro; type: cell-based; conditions: Enterobacter cloacae, HH31254, Table 1, read-out: MIC in vitro
Kleb. pneumo. 4200 = assay: In vivo mouse protection, Kleb. pneumo. 4200; conditions: sc
Kleb. pneumo. SK 1200 = assay: MIC in vitro; type: cell-based, Kleb. pneumoniae; conditions: Klebsiella pneumoniae
Protocol: (§1) The compounds of Formula I have exceptional antibacterial activity against both Gram-positive and Gram-negative organisms. Minimum inhibitory concentrations (MIC's) ranged from 0.2 to <200 μg./ml. in in vitro testing.

Kleb. pneumo. SK 4200 = assay: MIC in vitro; type: cell-based, Kleb. pneumoniae; conditions: Klebsiella pneumoniae
Protocol: as §1

S. villaluz = assay: MIC in vitro; type: cell-based; conditions: Table 1
Protocol: as §1

Proteus morgani 179 = assay: MIC in vitro; type: cell-based
Protocol: as §1

S. aureus SK 23390 = assay: MIC in vitro; type: cell-based; conditions: Staphylococcus aureus, SK23390, Table 1; S. aureus SK 23390; read-out: MIC in vitro
Protocol: as §1

Salmonella ATCC 12176 = assay: MIC in vitro; type: cell-based; conditions: Salmonella, ATCC12176, Table 1, read-out: MIC in vitro
Protocol: as §1

shigella HH 117 = assay: MIC in vitro; type: cell-based; conditions: HH117; Table 1; shigella HH 117; read-out: MIC in vitro
Protocol: as §1

S. aureus HH 127 = assay: MIC in vitro; type: cell-based; conditions: Staphylococcus aureus
Protocol: as §1

E. coli HH 33779 = assay: MIC in vitro; type: cell-based; conditions: Escherichia coli, HH33779, Table 1; E. coli HH 33779; read-out: MIC in vitro
Protocol: as §1

E. coli SK 12140 = assay: MIC in vitro; type: cell-based; conditions: Escherichia coli, SK12140
Protocol: as §1

Strep. Faecalis HH 34358 = assay: MIC in vitro; type: cell-based; conditions: Enterococcus faecalis
Protocol: as §1

E. coli 12140 = assay: In vivo mouse protection, E. coli 12140
Serra. marc ATCC 13880 = assay: MIC in vitro; type: cell-based, Serratia marcescens; conditions: Serratia marcescens
Protocol: as §1

Psuedo. sp. HH 63 = assay: MIC in vitro; type: cell-based, Pseudo. aeruginosa; conditions: Pseudomonas aeruginosa
Protocol: as §1

[1] = system: Entero. aerog. ATCC 13048; assay: MIC in vitro; type: cell-based, Enterobacter aerogenes; conditions: Klebsiella aerogenes
Protocol: as §1

Enterobacter cloacae 921 = assay: MIC in vitro; type: cell-based
E. coli 804 = assay: MIC in vitro; type: cell-based; conditions: Escherichia coli, read-out: MIC
Staph. aureus 674 = assay: MIC in vitro; type: cell-based
Pseudo. aeruginosa 647 = assay: MIC in vitro; type: cell-based; conditions: Pseudomonas aeruginosa, read-out: MIC
Kleb. pneumoniae 982 = assay: MIC in vitro; type: cell-based; conditions: Klebsiella pneumoniae, read-out: MIC
Proteus mirabilis 444 = assay: MIC in vitro; type: cell-based; conditions: read-out: MIC
Staph. aureus 671 = assay: MIC in vitro; type: cell-based; conditions: Staphylococcus aureus

What does the source list for `NS(=O)(=O)CCn1nnnc1SCC1=C(C(=O)O)N2C(=O)C(NC(=O)Cc3cccs3)[C@H]2SC1` (stereo partly drawn) [VIII, 7-(2-thienylacetamido)-3-[1-(2-sulfamoylethyl)tetrazol-5-ylthiomethyl]-3-cephem-4-carboxylic acid]?
MIC (Entero. cloacae HH 31254): 0.8 µg/mL (≈ 1.47 µM); ED50 (Kleb. pneumo. 4200; Table 2, Kleb. pneumo. 4200, s.c., read-out: ED50 in vivo): 2 mg/kg; MIC (Kleb. pneumo. SK 1200; read-out: MIC in vitro): 0.4 µg/mL (≈ 0.733 µM); MIC (Kleb. pneumo. SK 4200; Table 1, Kleb. pneumo. SK 4200, read-out: MIC in vitro): 1.6 µg/mL (≈ 2.93 µM); MIC (S. villaluz): 1.6 µg/mL (≈ 2.93 µM); MIC (Proteus morgani 179; Table 1, read-out: MIC in vitro): > 200 µg/mL; MIC (S. aureus SK 23390): 0.1 µg/mL (≈ 0.183 µM); MIC (Salmonella ATCC 12176): 0.8 µg/mL (≈ 1.47 µM); MIC (shigella HH 117): 0.4 µg/mL (≈ 0.733 µM); MIC (S. aureus HH 127; HH127, Table 1, S. aureus HH 127, read-out: MIC in vitro): 0.4 µg/mL (≈ 0.733 µM); MIC (E. coli HH 33779): 1.6 µg/mL (≈ 2.93 µM); MIC (E. coli SK 12140; Table 1, E. coli SK 12140, read-out: MIC in vitro): 0.8 µg/mL (≈ 1.47 µM); MIC (Strep. Faecalis HH 34358; Table 1, Strep. Faecalis HH 34358, read-out: MIC in vitro): 6.3 µg/mL (≈ 11.5 µM); ED50 (E. coli 12140; Escherichia coli, 12140, po, Table 2, E. coli 12140, p.o., read-out: ED50 in vivo): > 50 mg/kg; ED50 (E. coli 12140; Escherichia coli, 12140, sc, Table 2, E. coli 12140, s.c., read-out: ED50 in vivo): 1.32 mg/kg; MIC (Serra. marc ATCC 13880; ATCC13880, Table 1, Serra. marc ATCC 13880, read-out: MIC in vitro): 200 µg/mL (≈ 367 µM); MIC (Psuedo. sp. HH 63; Table 1, Psuedo. sp. HH 63, read-out: MIC in vitro): > 200 µg/mL; MIC ([1]; ATCC13048, Table 1, Entero. aerog. ATCC 13048, read-out: MIC in vitro): 3.1 µg/mL (≈ 5.68 µM)

Which results are given for `NCc1ccc(CC(=O)NC2C(=O)N3C(C(=O)O)=C(CSc4nnnn4CS(=O)(=O)O)CSC23)cc1` (stereo not drawn) [Example 54, 7-(4-Aminomethylphenylacetamido)-3-(1-sulfomethyltetrazol-5-ylthiomethyl)-3-cephem-4-carboxylic acid]?
MIC (Enterobacter cloacae 921; Enterobacter cloacae, 921, Example 54 table): 100 µg/mL (≈ 180 µM); MIC (E. coli 804; Example 54 table): > 100 µg/mL; ED50 (Kleb. pneumo. 4200; Example 54, s.c., K. pneumo. SKF 4200, read-out: ED50): 0.7 mg/kg; MIC (Kleb. pneumo. SK 1200; Example 54 table, Kleb. pneumoniae SK&F 1200, read-out: MIC): 0.4 µg/mL (≈ 0.72 µM); MIC (Kleb. pneumo. SK 4200; Example 54 table, Kleb. pneumoniae SK&F 4200, read-out: MIC): 0.4 µg/mL (≈ 0.72 µM); MIC (Staph. aureus 674; Staphylococcus aureus, 674, Example 54 table): 3.1 µg/mL (≈ 5.58 µM); MIC (Pseudo. aeruginosa 647; Example 54 table): > 100 µg/mL; MIC (Proteus morgani 179; Example 54 table, read-out: MIC): > 100 µg/mL; MIC (S. aureus HH 127; HH127, Example 54 table, Staph. aureus HH 127, read-out: MIC): 6.3 µg/mL (≈ 11.3 µM); MIC (E. coli SK 12140; Example 54 table, E. coli SK&F 12140, read-out: MIC): 6.3 µg/mL (≈ 11.3 µM); MIC (Strep. Faecalis HH 34358; Example 54 table, Strep. faecalis HH 34358, read-out: MIC): 100 µg/mL (≈ 180 µM); ED50 (E. coli 12140; Escherichia coli, 12140, sc, Example 54, s.c., E. coli SKF 12140, read-out: ED50): 8.7 mg/kg; MIC (Serra. marc ATCC 13880; ATCC13880, Example 54 table, Serratia marcescens ATCC 13880, read-out: MIC): > 100 µg/mL; MIC (Kleb. pneumoniae 982; Example 54 table): > 100 µg/mL; MIC (Proteus mirabilis 444; Example 54 table): 1.6 µg/mL (≈ 2.88 µM); MIC (Psuedo. sp. HH 63; Example 54 table, Pseudo. aeruginosa HH 63, read-out: MIC): > 100 µg/mL; MIC ([1]; ATCC13048, Example 54 table, Enterobacter aerogenes 13048, read-out: MIC): > 100 µg/mL; MIC (Staph. aureus 671; Example 54 table): 3.1 µg/mL (≈ 5.58 µM)

For `NCc1cccc(CC(=O)NC2C(=O)N3C(C(=O)O)=C(CSc4nnnn4CS(=O)(=O)O)CSC23)c1` (stereo not drawn) [Example 55, 7-(3-Aminomethylphenylacetamido)-3-(1-sulfomethyltetrazol-5-ylthiomethyl)-3-cephem-4-carboxylic acid], which MIC (Enterobacter cloacae 921; Enterobacter cloacae, 921, Example 55 table) is on record?
Its MIC is 25 µg/mL (≈ 45 µM).

And the MIC (E. coli 804; Example 55 table)?
The MIC was > 100 µg/mL.

What about the ED50 (Kleb. pneumo. 4200; Example 55, s.c., K. pneumo. SK&F 4200, read-out: ED50) of the same compound?
The ED50 was < 0.19 mg/kg.

What about the MIC (Kleb. pneumo. SK 1200; Example 55 table, Kleb. pneumoniae SK&F 1200, read-out: MIC) of the same compound?
The MIC was ≤ 0.1 µg/mL.

What about the MIC (Kleb. pneumo. SK 4200; Example 55 table, Kleb. pneumoniae SK&F 4200, read-out: MIC) of the same compound?
The MIC was 0.2 µg/mL (≈ 0.36 µM).

And the MIC (Staph. aureus 674; Staphylococcus aureus, 674, Example 55 table)?
Its MIC is 1.6 µg/mL (≈ 2.88 µM).

What about the MIC (Pseudo. aeruginosa 647; Example 55 table) of the same compound?
The MIC was > 100 µg/mL.

And the MIC (Proteus morgani 179; Example 55 table, read-out: MIC)?
The MIC was > 100 µg/mL.

And the MIC (S. aureus HH 127; Example 55 table, Staph. aureus HH127, read-out: MIC)?
Its MIC is 1.6 µg/mL (≈ 2.88 µM).

And the MIC (E. coli SK 12140; Example 55 table, E. coli SK&F 12140, read-out: MIC)?
The MIC was 1.6 µg/mL (≈ 2.88 µM).

What about the MIC (Strep. Faecalis HH 34358; Example 55 table, Strep. faecalis HH 34358, read-out: MIC) of the same compound?
The MIC was 100 µg/mL (≈ 180 µM).

And the ED50 (E. coli 12140; Escherichia coli, 12140, sc, Example 55, s.c., E. coli SKF 12140, read-out: ED50)?
Its ED50 is 1.82 mg/kg.

What about the MIC (Serra. marc ATCC 13880; ATCC13880, Example 55 table, Serratia marcescens ATCC 13880, read-out: MIC) of the same compound?
The MIC was > 100 µg/mL.

What about the MIC (Kleb. pneumoniae 982; Example 55 table) of the same compound?
The MIC was > 100 µg/mL.

And the MIC (Proteus mirabilis 444; Example 55 table)?
The MIC was 0.4 µg/mL (≈ 0.72 µM).

What about the MIC (Psuedo. sp. HH 63; Example 55 table, Pseudo. aeruginosa HH63, read-out: MIC) of the same compound?
The MIC was > 100 µg/mL.

And the MIC ([1]; ATCC13048, Example 55 table, Enterobacter aerogenes 13048, read-out: MIC)?
Its MIC is 50 µg/mL (≈ 90 µM).

What about the MIC (Staph. aureus 671; Example 55 table) of the same compound?
Its MIC is 6.3 µg/mL (≈ 11.3 µM).

— patent US4159373A, “7-Acyl-3-(sulfonic acid and sulfamoyl substituted tetrazolyl thiomethyl) cephalosporins” (SmithKline Corporation, priority 1978, dated 1979)
